According to patent US8003400B2, “Measurement of vitamin D” (Roche Diagnostics Operations, Inc., priority 2006, dated 2011):

Molecular target: T1, vitamin D binding protein (Homo sapiens, UniProt P02774)
T1 sequence (P02774 17-474): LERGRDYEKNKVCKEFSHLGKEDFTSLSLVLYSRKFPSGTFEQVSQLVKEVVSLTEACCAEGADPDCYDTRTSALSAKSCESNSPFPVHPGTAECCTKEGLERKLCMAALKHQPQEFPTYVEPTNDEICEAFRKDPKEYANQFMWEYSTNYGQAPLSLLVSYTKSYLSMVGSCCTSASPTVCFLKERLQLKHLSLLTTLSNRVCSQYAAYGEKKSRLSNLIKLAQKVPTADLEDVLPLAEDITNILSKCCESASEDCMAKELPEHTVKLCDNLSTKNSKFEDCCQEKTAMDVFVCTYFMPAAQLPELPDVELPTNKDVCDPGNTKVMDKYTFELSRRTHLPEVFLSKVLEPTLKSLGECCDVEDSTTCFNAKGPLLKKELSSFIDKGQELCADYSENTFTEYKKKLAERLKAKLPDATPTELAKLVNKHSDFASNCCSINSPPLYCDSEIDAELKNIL
Assay: BIACORE assessment of release of vitamin D binding protein from immobilised biotinylated 25-hydroxyvitamin D3
Details: BIACORE streptavidin chip saturated with biotinylated 25-hydroxyvitamin D3 and vitamin D binding protein; release monitored for 3 min
From the text: For this assessment a streptavidin-coated BIACORE chip is used. This streptavidin-chip is then saturated with a biotinylated 25-hydroxyvitamin D3 and thereafter with vitamin D binding protein. […] The BIACORE system is used to assess whether a reagent considered to be a potential candidate for releasing vitamin D from vitamin D binding protein will be efficient in releasing of vitamin D binding protein to a vitamin D metabolite. A sensor chip coated with streptavidin (Sensor Chip SA, BIACORE AB, BR-1000-32) is used for immobilization of a biotinylated vitamin D metabolite of interest. The assessment is best performed by use of the vitamin D metabolite 25OH vitamin D3. The sensor chip is first incubated with a saturating concentration of biotinylated 25-hydroxyvitamin D3, Then the chip is loaded with a saturating amount of vitamin D binding protein. Then the vitamin D binding protein saturated chip is incubated with a sodium chloride solution one the one hand and a candidate vitamin D releasing reagent in various concentrations on the other hand. The release of vitamin D binding protein is monitored for 3 min. A candidate vitamin D releasing reagent causing the release of at least […] vitamin D binding protein in the above system is appropriate to meet the minimal requirements for a vitamin D releasing reagent used in the detection of a vitamin D metabolite in a sample of serum or plasma 25-hydroxyvitamin D3. Between each run the 25-hydroxyvitamin D3-coated SA-chip is regenerated by washing it with 10 mM Gly/HCl pH 1.7 for 1 min. As non-specific control a reference flow cell coated with biotin on the same chip was used. The data of the reference flow cell are subtracted from those of the biospecific flow cell. Thus specific data free of non-specific effects are obtained.

| Compound | Concentration of releasing reagent required for release off >95% vitamin D binding protein from 25OH-vitamin D3 [% volume/volume] |
| --- | --- |
| CCCCn1cc[n+](C)c1.F[B-](F)(F)F [BMI-TFB, 1-Butyl-3-methyl-imidazolium-tetrafluoroborate] | 8 |
| CCCC[n+]1cccc(C)c1.N#C[S-] [BMP-SCN, 1-Butyl-3-methyl-pyridinium-thiocyanate] | 6 |
| CCCCCC[n+]1ccccc1.[Cl-] [HP-Cl, 1-Hexylpyridinium-chloride] | 6 |
| 1-Butyl-3-methyl-imidazolium-octylsulfate [BMI-OSO4] | 0.5 |
| CCCC[n+]1cccc(C)c1.[Cl-] [BMP-Cl, 1-Butyl-3-methyl-pyridinium-chloride] | 12 |
| CCCC[n+]1ccc(C)cc1.F[B-](F)(F)F [BMP-TFB, 1-Butyl-4-methyl-pyridinium-tetrafluoroborate] | 6 |
| CCCCCCCC[n+]1ccccc1.[Cl-] [NOP-Cl, N-Octylpyridinium-chloride] | 3 |
| CCCCCCCC[N+]1(C)CCCC1.[Cl-] [MOP-Cl, 1-Methyl-1-octyl-pyrrolidinium-chloride] | 3 |
